From US10420831B2, “Inactivation of viruses by delipidation” (priority 2016, dated 2019)
Read-outs that look alike come from different tables or passages of the source.

How the values were obtained:
[1] = test system: human influenza virus H1N1 A/WSN/33 strain; type: cell-based
[2] = test system: human influenza virus H1N1 A/WSN/33 strain; assay: Hemagglutination (HA) activity of treated IFV with chicken red blood cells
Method: Hemagglutination (HA) activity is determined as follows. Freshly isolated chicken blood is washed three times with PBS, and the red blood cells (RBC) are resuspended in PBS at a concentration of 1%. Virus dilutions (50 μL) are made in PBS and mixed with 50 μL of the RBC suspension. The mixture is added to individual wells in a 96-well plate and the RBC are allowed to settle for 45 minutes. The wells are judged to be HA negative (i.e. no agglutination of RBC) if a dot or pellet of RBC is present, and a well is judged to be positive if a smooth suspension of RBC is present.
In addition to MBCD, another lipid solvent, diisopropyl ether (DIPE) is used to delipidate IFV. […] After a brief centrifugation at 2,000×g for 3 minutes, visible solvent is removed, and the aqueous materials are left to dry in a fume hood for 20 minutes. The samples are then centrifuged at 200,000×g for 30 minutes to recover virus particles.

CC(C)OC(C)C [DIPE, diisopropyl ether]
IFV infectivity reduced, compared to the mock-treatment ([1]; 12% DIPE, 37° C., 30 minutes, […]): 32 fold | PFU/mL ([1]; IFV, 2% DIPE, 37° C., 30 minutes): 1.2 × 10^8 PFU/mL | PFU/mL ([1]; IFV, 4% DIPE, 37° C., 30 minutes): 1.4 × 10^8 PFU/mL | PFU/mL ([1]; IFV, 8% DIPE, 37° C., 30 minutes): 9.0 × 10^7 PFU/mL | decrease in infectivity in vitro ([1]; IFV, 10% DIPE, 30 minute treatment): ~120 fold | PFU/mL ([1]; IFV, 10% DIPE, end-over-end rotation at 37° C. for 30 minutes): 1.0 × 10^5 PFU/mL | PFU/mL ([1]; IFV, 12% DIPE, 37° C., 30 minutes): 2.8 × 10^7 PFU/mL | HA units ([2]; 2% DIPE, 37° C., 30 minutes): 32 HA units | HA units ([2]; 4% DIPE, 37° C., 30 minutes): 32 HA units | HA units ([2]; 8% DIPE, 37° C., 30 minutes): 32 HA units | effect on HA activity (in words) ([2]; 10% DIPE, 30 minutes): measurably reduced | HA units ([2]; 10% DIPE, end-over-end rotation at 37° C. for 30 minutes): 16 HA units | HA units ([2]; 12% DIPE, 37° C., 30 minutes): 16 HA units
